Consider ten molecules from patent publication US20130030007A1, “Obesity Small Molecules” (AKRON MOLECULES GMBH, priority 2010, published 2013).

For series [1], the system named is C57BL6/J DIO mice. Description: Body weight of diet-induced obese mice under daily compound administration. It is filed as in vivo, mouse. As for the experimental part:
FIG. 9. Loss of weight in Vandetanib administered mice. C57BL6/J DIO mice were administered 40/mg/kg/day by oral gavage. The mice were weighed daily and the values were expressed as a percentage of the starting weight (day 1). […] Error bars represent standard error of the mean.
FIG. 13. Loss of weight in dasatininb administered mice. C57BL6/J DIO mice were administered 5/mg/kg/day for 27 days. The mice were weighed daily and the values were expressed as a percentage of the starting weight (day 1). […] Error bars represent standard error of the mean.
General preferred layout: The mice were divided into cages of 2-4 mice per cage and allowed to acclimatise to the new housing conditions for at least 2 weeks. The mice were weighed every week to monitor their weight and ensure that the mice are either gaining weight or stabilized prior to initiation of the experiment. Mice were randomly assigned to weight-matched groups for compound administration. Compound dosage and routes of administration were determined based on published literature and pharmacokinetic studies. […]
The dose of Vandetanib chosen for this study was 40 mg/kg/d. This has been determined to be an effective dose for the inhibition of the target VEGFR in various mouse cancer models. […] The mice were weighed on a daily basis during the experiment and monitored for overt signs of toxicity or stress. […]

The test system of series [2] is C57BL6/J DIO mice.
Another series has as its system hedgehog pathway. Format: cell-based.
The conditions of series [3]: human, in vivo, po; cited from earlier work.
For series [4] the following is noted: administered orally; cited from earlier work.
The conditions of series [5]: cited from earlier work.
For the next series, the system named is tumour growth. Particulars: up to 100 mg/kg in mice for 35 days; cited from earlier work.
For the next series, the system named is renal cell carcinoma. Particulars: 50 mg/kg for 21 days; cited from earlier work.
Series [6] concerns human Adenoid Cycstic Carcinoma. Conditions: 50 mg/kg/d oral gavage for 4 weeks; cited from earlier work.
Series [7] deals with human ortholog of Drosophila obesity gene. Description: Table 1: type of interaction of small molecule with therapeutic target gene. On the set-up: key: O: Obesity - obesity pathway interaction; B: validated binding partner.
For series [8] the following is noted: cited from earlier work. This is another data set of the same source.

Like-named read-outs stand apart in the source and are kept apart here.

As to `Cc1nc(Nc2ncc(C(=O)Nc3c(C)cccc3Cl)s2)cc(N2CCN(CCO)CC2)n1` [Dasatinib], the “average loss of starting weight” value in the series with C57BL6/J DIO mice [1] (5 mg/kg/day intraperitoneally, by day 28) was determined as 20%. Besides, in the series with C57BL6/J DIO mice [2] (mouse, in vivo, ip, 5 mg/kg/day), the “tolerability / adverse side effects” value is “well tolerated during the course of the study and no adverse side effects were observed”. As to `CNC1CCC(N(Cc2cccc(-c3ccncc3)c2)C(=O)c2sc3ccccc3c2Cl)CC1` (stereo not shown) [SAG], the “hedgehog pathway activation (target genes Gli1 and Ptch1)” value in the series on hedgehog pathway is listed as “activation”.

As for `CNC(=O)c1cc(Oc2ccc(NC(=O)Nc3ccc(Cl)c(C(F)(F)F)c3)cc2)ccn1` [Sorafenib], the “maximum tolerated dose in humans” value in series [3] is reported as 400 mg. Moreover, the half life in series [4] is 25 to 48 h. Turning to `C=CCNC1=C2C[C@@H](C)C[C@H](OC)[C@H](O)[C@@H](C)/C=C(\C)[C@H](OC(N)=O)[C@@H](OC)/C=C\C=C(/C)C(=O)NC(=CC1=O)C2=O` [Tanespimycin, 17-allylamino-demethoxygeldamycin], in series [5], the water solubility result is “water insoluble”. On to `COc1cc2c(Nc3ccc(Br)cc3F)ncnc2cc1OCC1CCN(C)CC1` [Vandetanib], for which the “effect on clinical condition” value in the series with tumour growth is reported as “no obvious effect on clinical condition”. In addition, the “reduction of body weight” value with C57BL6/J DIO mice [1] (40 mg/kg/d oral gavage, stabilized over the course of the experiment) is recorded as approximately 10%. Besides, the tolerability entry in the series with renal cell carcinoma was “well tolerated with no drug related changes in weight or behaviour observed”; in series [6], “well tolerated by the mice and no adverse side effects or loss in body weight was observed”. Further, the “maximum tolerated dose in humans” value in series [3] was 300 mg. In the series on C57BL6/J DIO mice [2] (DIO mice, 40 mg/kg/d oral gavage, course of the study), the “tolerability / adverse side effects” value is “well tolerated during the course of the study and no adverse side effects were observed”. `O=C(O[C@@H]1Cc2c(O)cc(O)cc2O[C@@H]1c1ccc(O)c(O)c1)c1cc(O)c(O)c(O)c1` [epicatechin gallate]: the “Type: Type of interaction” value in series [7] is listed as “B”. As to `CCC(=O)O[C@]1(C(=O)SCF)[C@H](C)C[C@H]2[C@@H]3C[C@H](F)C4=CC(=O)C=C[C@]4(C)[C@@]3(F)[C@@H](O)C[C@@]21C` [fluticasone propionate], the acute toxic effects entry in series [8] (human, in vivo, po) is “no acute toxic effects reported”. For the same molecule, the tolerability result is given as “well tolerated” in series [8] (intranasal 2 mg twice daily for 7 days, healthy human volunteers) and “well tolerated” in [8] (repeat oral doses up to 80 mg daily for 10 days in volunteers, up to 10 mg daily for 14 days in patients). Regarding `O=C1C[C@@H](c2ccc(O[C@@H]3O[C@H](CO)[C@@H](O)[C@H](O)[C@H]3O)cc2)Oc2cc(O)ccc21` [liquiritin], in [7], the “Type: Type of interaction” value is recorded as “O”.

With `O=c1c2ccccc2nc2n1CCc1c-2[nH]c2ccccc12` [rutecarpine], the “Type: Type of interaction” value in series [7] is given as “B”. The same measure, in the same setting: the same measure for `O=C(/C=C/c1ccccc1)NC(NC(=S)Nc1cccc2cccnc12)C(Cl)(Cl)Cl` (stereo not shown) [salubrinal]: “B”.
